In patent publication US20230286973A1, “PROTEIN SECRETION INHIBITORS” (KEZAR LIFE SCIENCES, priority 2020, published 2023):

Tests used:
[1] = test system: IL-2-FL/Gaussia Luciferase; assay: Dox Induced IL2-FL-Gluc Assay; format: cell-based; conditions: for IC50: 24 hr Dox induction, 293FRT/TO cells, read-out: 24 hr Dox Inducible IL2FLGluc 293FRT/TO: Mean IC50; for 24 hr Dox Inducible IL2FLGluc 293FRT/TO: IL2/PD1: ratio of IL2FLGluc IC50 to PD1ssGluc IC50
Summary of the method: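 Doxycycline induces an IL-2(1-153)–Gaussia luciferase fusion in a stable Flp-In 293 T-REx line. Compound exposure runs alongside induction at 37° C.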

[2] = Liver Microsome Stability Assay (monkey); conditions: monkey liver microsomes, with NADPH, 1.0 uM compound
Protocol: (§1) Stability of a compound was assessed in the presence of liver microsomes from various sources—mouse, rat, monkey and human liver microsomes. 1.0 uM compound, 0.4% DMSO in 0.1 M Potassium Phosphate with 1.0 mg/mL liver microsomes, were incubated at 37° C. with or without 1 mM NADPH. The samples were quenched at 0, and 30 minutes.

[3] = test system: multiple myeloma cell line NCI-H929; assay: H929 Cell Viability Assay; format: cell-based, human; conditions: Homo sapiens, NCI-H929, 48 h, NCI-H929 cells, Celltiter-Glo
Summary of the method: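 Viability is scored by CellTiter-Glo luminescence following a 48-hour treatment at 37° C. Data for structures shown without stereochemistry refer to stereoisomer mixtures.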

[4] = test system: TNFα-FL/Gaussia Luciferase; assay: Dox Induced TNFα-FL-Gluc Assay; format: cell-based; conditions: for IC50: 24 hr Dox induction, 293FRT/TO cells, read-out: 24 hr Dox Inducible TNFaFLGluc 293FRT/TO: Mean IC50; for 24 hr Dox Inducible TNFaFLGluc 293FRT/TO: TNF/PD1: ratio of TNFaFLGluc IC50 to PD1ssGluc IC50
Summary of the method: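 Doxycycline-inducible Gaussia luciferase-tagged full-length TNFα (1-233) was expressed in stable Flp-In 293 T-REx cells. Compounds were co-added with doxycycline and incubated at 37 °C, 5% CO2.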

[5] = Liver Microsome Stability Assay (human); conditions: human liver microsomes, with NADPH, 1.0 uM compound
Protocol: as §1

[6] = Liver Microsome Stability Assay (mouse); conditions: mouse liver microsomes, with NADPH, 1.0 uM compound
Protocol: as §1

[7] = test system: HER3-ss+4aa/Gaussia Luciferase; assay: Dox-Induced Her3-ss-Gluc Assay; format: cell-based; conditions: 24 hr Dox induction; 293FRT/TO cells; read-out: 24 hr Dox Inducible Her3(ss + 4)Gluc 293FRT/TO: Mean IC50
Summary of the method: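 Reporter line: Flp-In 293 T-REx, T-REx-regulated HER3-ss+4aa fused to Gaussia luciferase. Compound co-added with doxycycline after overnight plating, 37° C., 5% CO2.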

[8] = Liver Microsome Stability Assay (rat); conditions: rat liver microsomes, with NADPH, 1.0 uM compound
Protocol: as §1

[9] = test system: multiple myeloma cell line U266B1; assay: U266 Cell Viability Assay; format: cell-based, human; conditions: Homo sapiens, U-266, 48 h, U266B1 cells, Celltiter-Glo
Summary of the method: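 Viability is measured as luciferase signal from CellTiter-Glo following a 48-hour incubation with compound at 37° C. under 5% CO2. Where structures lack drawn stereochemistry, values refer to stereoisomer mixtures.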

[10] = test system: PD1-ss+10aa/Gaussia Luciferase; assay: Dox-Induced PD1-ss-Gluc Assay; format: cell-based; conditions: 24 hr Dox induction; 293FRT/TO cells; read-out: 24 hr Dox Inducible PD1ssGluc 293FRT/TO: Mean IC50
Summary of the method: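 Stable Flp-In 293 T-REx cells carried a doxycycline-inducible construct of Gaussia luciferase fused to the PD1 signal sequence plus 10 amino acids. Cells were plated the day before, then treated with compound dilutions in DMSO/media containing doxycycline at 37 °C, 5% CO2.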

SMILES	IC50 [1] [µM]	Liver Microsome Stability (Multiple Species): Monkey - % Remaining after 30 min w/NADPH [2] [%]	EC50 [3] [µM]	IC50 [4] [µM]	Liver Microsome Stability (Multiple Species): Human - % Remaining after 30 min w/NADPH [5] [%]	Liver Microsome Stability (Multiple Species): Mouse - % Remaining after 30 min w/NADPH [6] [%]	IC50 [7] [µM]	Liver Microsome Stability (Multiple Species): Rat - % Remaining after 30 min w/NADPH [8] [%]	EC50 [9] [µM]	IC50 [10] [µM]	24 hr Dox Inducible IL2FLGluc 293FRT/TO: IL2/PD1 [1]	24 hr Dox Inducible TNFaFLGluc 293FRT/TO: TNF/PD1 [4]
CCn1cnc(/C=C/c2csc(NC(=O)c3cccn3Cc3ccncc3)n2)c1 [Compound B69, (E)-N-(4-(2-(1-ethyl-1H-imidazol-4-yl)vinyl)thiazol-2-yl)-1-(pyridin-4-ylmethyl)-1H-pyrrole-2-carboxamide]	> 25	0.04	> 25	> 25	0.01	0.32	> 25	0.28	> 25	0.119	>210	>209
Cc1cccc2nc(/C=C/c3csc(NC(=O)c4cccn4Cc4ccnc(F)c4)n3)cn12 [Compound B70, (E)-1-((2-fluoropyridin-4-yl)methyl)-N-(4-(2-(5-methylimidazo[1,2-a]pyridin-2-yl)vinyl)thiazol-2-yl)-1H-pyrrole-2-carboxamide]	> 25	0.19	> 25	> 25	0.35	2.19	> 25	1.37	> 25	0.499	>50	>50.1
CC(C)c1cccc2nc(/C=C/c3csc(NC(=O)c4cccn4Cc4ccnc(F)c4)n3)cn12 [Compound B73, (E)-1-((2-fluoropyridin-4-yl)methyl)-N-(4-(2-(5-isopropylimidazo[1,2-a]pyridin-2-yl)vinyl)thiazol-2-yl)-1H-pyrrole-2-carboxamide]	> 25	0.48	> 25	> 25	0.81	1.62	> 25	3.87	> 25	0.486	>51	>51.4
CC(C)n1ccc(/C=C/c2csc(NC(=O)c3cccn3Cc3ccncc3)n2)n1 [Compound B75, (E)-N-(4-(2-(1-isopropyl-1H-pyrazol-3-yl)vinyl)thiazol-2-yl)-1-(pyridin-4-ylmethyl)-1H-pyrrole-2-carboxamide]	17.1	0.23	7.16	10.3	2.26	0.94	5.67	0.27	6.75	0.446	38	23
Cc1cccc2nc(/C=C/c3csc(NC(=O)c4cccn4Cc4ccncc4)n3)cn12 [Compound B77, (E)-N-(4-(2-(5-methylimidazo[1,2-a]pyridin-2-yl)vinyl)thiazol-2-yl)-1-(pyridin-4-ylmethyl)-1H-pyrrole-2-carboxamide]	> 25	0.59	> 25	> 25	1.11	2.21	11.5	1.67	> 25	0.491	>51	>50.9

Further lines, with some results ahead:

IC50 [1] [µM]	Liver Microsome Stability (Multiple Species): Monkey - % Remaining after 30 min w/NADPH [2] [%]	EC50 [3] [µM]	IC50 [4] [µM]	Liver Microsome Stability (Multiple Species): Human - % Remaining after 30 min w/NADPH [5] [%]	Liver Microsome Stability (Multiple Species): Mouse - % Remaining after 30 min w/NADPH [6] [%]	IC50 [7] [µM]	Liver Microsome Stability (Multiple Species): Rat - % Remaining after 30 min w/NADPH [8] [%]	EC50 [9] [µM]	IC50 [10] [µM]	SMILES	24 hr Dox Inducible IL2FLGluc 293FRT/TO: IL2/PD1 [1]	24 hr Dox Inducible TNFaFLGluc 293FRT/TO: TNF/PD1 [4]
> 25	0.07	10.1	> 25	0.5	14	18.2	19.9	14.6	0.348	CC(C)n1cnc(/C=C/c2csc(NC(=O)c3cccn3Cc3cc(F)nc(F)c3)n2)c1 [Compound B68, (E)-1-((2,6-difluoropyridin-4-yl)methyl)-N-(4-(2-(1-isopropyl-1H-imidazol-4-yl)vinyl)thiazol-2-yl)-1H-pyrrole-2-carboxamide]	>72	>71.9
> 25	0.03	> 25	> 25	0.03	0.16	> 25	0.1	> 25	0.298	O=C(Nc1nc(/C=C/c2cn3c(n2)CCC3)cs1)c1cccn1Cc1ccncc1 [Compound B71, (E)-N-(4-(2-(6,7-dihydro-5H-pyrrolo[1,2-a]imidazol-2-yl)vinyl)thiazol-2-yl)-1-(pyridin-4-ylmethyl)-1H-pyrrole-2-carboxamide]	>84	>83.9
> 25	0.06	> 25	> 25	0.95	0.03	10.6	0.16	> 25	7.15	CC(C)c1nc(/C=C/c2csc(NC(=O)c3cccn3Cc3ccncc3)n2)cn1C [Compound B72, (E)-N-(4-(2-(2-isopropyl-1-methyl-1H-imidazol-4-yl)vinyl)thiazol-2-yl)-1-(pyridin-4-ylmethyl)-1H-pyrrole-2-carboxamide]	>3.5	>3.50
5.36	0.13	5.29	9.97	0.44	3.41	4.08	0.43	5.49	0.418	CC(C)n1ccc(/C=C/c2csc(NC(=O)c3cccn3Cc3ccnc(F)c3)n2)n1 [Compound B74, (E)-1-((2-fluoropyridin-4-yl)methyl)-N-(4-(2-(1-isopropyl-1H-pyrazol-3-yl)vinyl)thiazol-2-yl)-1H-pyrrole-2-carboxamide]	13	23.9
> 25	0.25	> 25	> 25	0.76	0.37	1.6	0.52	> 25	0.419	CC(C)c1cccc2nc(/C=C/c3csc(NC(=O)c4cccn4Cc4ccncc4)n3)cn12 [Compound B76, (E)-N-(4-(2-(5-isopropylimidazo[1,2-a]pyridin-2-yl)vinyl)thiazol-2-yl)-1-(pyridin-4-ylmethyl)-1H-pyrrole-2-carboxamide]	>60	>59.6
